Key:
dopamine transporter [1] = target: T1, dopamine transporter (Homo sapiens, UniProt Q01959); experiment: Dynamic SPECT time-activity study in Lewy Body Dementia and control subjects; type: in vivo; design: from tissue; host or cells: human brain striatum in vivo (Lewy Body Dementia subjects and controls)
Source text: The following example summarizes single photon emission computed tomographic (SPECT) image acquisition, analysis methods for Lewy Body Dementia research participants and healthy controls participating in an ^123I-altropane SPECT imaging study. The experiment is an open label study evaluating time-activity curves and striatal dopamine transporter occupancy over the first hour post bolus injection of ^123I-altropane using temporally well-resolved dynamic SPECT in Lewy Body Dementia subjects and similarly aged healthy control subjects. In addition, for the Lewy Body Dementia subjects, a second injection and scan is performed on each subject on a separate test day to evaluate the test/retest reproducibility data for both visual and quantitative analyses.
Fifteen idiopathic Lewy Body Dementia subjects are recruited through local advertising and word-of-mouth for enrollment in the study. All fifteen subjects complete two separate injection and SPECT scan sessions with approximately […] (8 mCi) of ^123I-altropane. Subjects undergo assessment by a neurology specialist.
Twelve healthy controls subjects are recruited for participation in a single scan session with ^123I-altropane using the identical SPECT image acquisition protocol as the Lewy Body Dementia subjects. Healthy subjects are evaluated by a neurology specialist to confirm the absence of neurologic illness.
SPECT scans are acquired for 60 min following the intravenous injection with […] (8.0 mCi) of ^123I altropane. A series of dynamic SPECT scans are obtained as five scans at 6 minutes per acquisition followed by three scans at 10 minutes per acquisition. The subject remains in the camera for the duration of the acquisition. Each SPECT study is acquired on a Philips PRISM 3000XP triple-headed SPECT camera (Cleveland, Ohio, USA) fitted with fan-beam collimators. Each head rotates 360 degrees, sampling every 3 degrees for a total of 120 raw projection images per head. Projection data are collected in a 128×128 matrix within a symmetric energy window centered at 159 kEv (+/−10%).
Data are re-constructed using filtered back projection and a simple ramp filter followed by a post hoc (3-D) standardized low pass filter. Attenuation correction is performed applying a Chang 0 correction and a mu of 0.11 cm^−1 using a standard or custom software. Regions of interest (ROIs) are placed in the 3-head data scans with individual ROI sampling of the left and right caudate and putamen and an occipital background region. […] The mean striatal SBR scores are calculated as the mean of the left and right caudate and putamen SBR scores. […]
The time-activity data for mean striatal count densities and occipital background for each of the 8 images acquired in the 60 minutes post injection sampling period are plotted to permit visual interrogation of the uptake and washout characteristics of ^123I-altropane in Lew Body Dementia and controls. […] The peak SBR is assessed for each subject for data acquired using 1, 2, and all 3 heads of imaging data. […]

dopamine transporter [2] = target: T1, dopamine transporter; details: in vitro; cited from earlier work
dopamine transporter [3] = target: T1, dopamine transporter; details: cited from earlier work
dopamine transporter [4] = target: T2, dopamine transporter (Macaca fascicularis, UniProt Q9GJT6); details: monkeys, in vivo and in vitro; density within range reported for the dopamine transporter; cited from earlier work
T2 construct: host or cells: monkey striatum
T2 sequence (Q9GJT6 whole entry): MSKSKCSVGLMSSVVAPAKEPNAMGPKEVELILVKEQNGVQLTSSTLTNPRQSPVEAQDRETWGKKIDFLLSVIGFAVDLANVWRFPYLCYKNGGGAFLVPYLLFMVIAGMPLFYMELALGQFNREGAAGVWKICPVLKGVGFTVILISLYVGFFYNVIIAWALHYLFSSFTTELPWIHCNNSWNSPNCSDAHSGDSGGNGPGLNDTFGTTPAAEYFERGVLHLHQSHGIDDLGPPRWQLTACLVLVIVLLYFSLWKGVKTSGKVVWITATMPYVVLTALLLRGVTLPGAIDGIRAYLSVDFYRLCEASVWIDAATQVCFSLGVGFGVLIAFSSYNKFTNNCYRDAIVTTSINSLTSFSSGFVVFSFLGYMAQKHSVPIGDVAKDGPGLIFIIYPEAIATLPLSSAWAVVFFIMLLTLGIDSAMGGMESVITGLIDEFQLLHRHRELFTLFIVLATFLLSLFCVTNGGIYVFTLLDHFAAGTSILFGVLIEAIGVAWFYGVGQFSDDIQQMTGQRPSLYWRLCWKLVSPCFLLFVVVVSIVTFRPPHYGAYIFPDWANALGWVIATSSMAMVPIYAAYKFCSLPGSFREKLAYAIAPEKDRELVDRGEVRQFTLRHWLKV

dopamine transporter [5] = target: T1, dopamine transporter; experiment: SPECT imaging of striatal binding potential, Lewy Body Dementia subjects versus controls; type: in vivo; design: from tissue; host or cells: human brain striatum in vivo (Lewy Body Dementia subjects and controls)
[6] = Safety and tolerability of imaging agent in patients; type: in vivo, human

T1 sequence (Q01959 whole entry): as the sequence (Q9GJT6 whole entry) above, with M24V, V137I, S194P, G198S, N200D, G201S, P202S counted along it

Row | SMILES | elimination from the brain (dopamine transporter [1]; most subjects) | binding site on the dopamine transporter (dopamine transporter [2]) | selectivity for dopamine transporter compared to serotonin transporter (dopamine transporter [3]) | regional binding in brain (dopamine transporter [4]) | striatal binding potential versus expected levels for age matched normal individuals (dopamine transporter [5]; Example 1, six Lewy Body Dementia subjects, i.v., SPECT) | uptake in striatum, Lewy Body Dementia subjects versus control adults (dopamine transporter [5]; Example 3) | binding potential, Lewy Body Dementia group versus control group (dopamine transporter [5]; Example 3, 8 LBD and 16 control adults, one-tailed t-test) | safety and tolerability [6] | test-retest reproducibility of total striatal binding (dopamine transporter [1]; 15 LBD subjects, about 30 minutes commencing 15 minutes after injection) | time post injection by which washout rates from striatum and occipital background are similar (stable striatal binding ratio) (dopamine transporter [1]; bolus injection) [min] | time of peak striatal count densities post injection (dopamine transporter [1]; bolus injection, controls and Lewy Body Dementia subjects) [min] | time of peak SBR post injection (dopamine transporter [1]; one and two imaging head reconstructions) [min]
1 | COC(=O)C1C(c2ccc(F)cc2)CC2CCC1N2C/C=C/I (stereo not drawn) [Altropane, 2β-carbomethoxy-3β-(4′-flurophenyl)-N-(3-iodo-E-allyl) nortropane] | rapidly eliminate | binds to a specific high-affinity site | high selectivity | preferentially binds to dopamine rich areas of the striatum |  |  |  |  |  |  |  | 
2 | COC(=O)[C@H]1[C@@H](c2ccc(F)cc2)C[C@@H]2CC[C@H]1N2C/C=C/[123I] [^123I-Altropane, E-2β-carbomethoxy-3β-(4-fluorophenyl)-N-1(1-iodoprop-1-en-3) nortropane] |  |  |  |  | reduced binding potential | lower | significantly lesser binding potential | safe and well tolerated | demonstrates reproducibility | 20 to 30 | 10 | ≥ 15
